≈ marks a conversion by molar mass, not a printed value. Calls of active or inactive are those of the source. The calls are words filed in the database; no cut-off is given here.
What was measured:
[1] = system: Escherichia coli; test: Antibacterial activity against Escherichia coli MTCC 1652 at 4 mg/ml after 24 hr by agar well diffusion method; format: functional, organism-based
[2] = system: Staphylococcus aureus; test: Antibacterial activity against Staphylococcus aureus MTCC 96 at 4 mg/ml after 24 hr by agar well diffusion method; format: functional; conditions: MTCC 96, 24 h, read-out: DIZ
[3] = system: Pseudomonas aeruginosa; conditions: MTCC 741, 4 mg/ml
Description: (§1) Antibacterial activity against Pseudomonas aeruginosa MTCC 741 at 4 mg/ml after 24 hr by agar well diffusion method

[4] = system: Aspergillus flavus; test: Growth inhibition of Aspergillus flavus at 4 mg/ml after 7 days by poisoned food technique; format: functional; conditions: 168 h, read-out: GI
[5] = system: Bacillus subtilis; test: Antibacterial activity against Bacillus subtilis MTCC 121 at 4 mg/ml after 24 hr by agar well diffusion method; format: functional; conditions: MTCC 121, 24 h, read-out: DIZ
[6] = system: Bacillus subtilis; test: Antibacterial activity against Bacillus subtilis MTCC 121 after 24 hr by macro dilution tube method; format: functional; conditions: MTCC 121, 24 h
[7] = system: Aspergillus niger; test: Growth inhibition of Aspergillus niger at 4 mg/ml after 7 days by poisoned food technique; format: functional; conditions: 168 h, read-out: GI
[8] = system: Staphylococcus aureus; test: Antibacterial activity against Staphylococcus aureus MTCC 96 after 24 hr by macro dilution tube method; format: functional; conditions: MTCC 96, 24 h
[9] = system: Pseudomonas aeruginosa; test: microbe, parasite or virus in culture; conditions: MTCC 741, 24 h, read-out: DIZ
Description: as §1

For `O=C1NC(=O)/C(=C/c2cn(-c3ccccc3)nc2-c2ccccc2)S1`, the “diameter of the inhibition zone (DIZ)” value [1] was “inactive”, the zone of inhibition at 4000 µg/mL [2] was 20.3 mm and the DIZ [3] was “inactive”. The inhibition of growth at 4000 µg/mL [4] was 60%, the zone of inhibition at 4000 µg/mL [5] was 16 mm and the MIC [6] was 128 µg/mL (≈ 368 µM). For the same compound, the inhibition of growth at 4000 µg/mL [7] was 62.5% and the MIC [8] was 32 µg/mL (≈ 92.1 µM).
With `O=C1NC(=O)/C(=C/c2cn(-c3ccccc3)nc2-c2ccc([N+](=O)[O-])cc2)S1` the “diameter of the inhibition zone (DIZ)” value [1] was “inactive”, the zone of inhibition at 4000 µg/mL [2] was 23.6 mm and the DIZ [3] was “inactive”. For the same compound, the inhibition of growth at 4000 µg/mL [4] was 63.3%, the zone of inhibition at 4000 µg/mL [5] was 21.3 mm and the MIC [6] was 32 µg/mL (≈ 81.6 µM). It also gave an inhibition of growth at 4000 µg/mL [7] of 61.1% and an MIC [8] of 16 µg/mL (≈ 40.8 µM).
`OC(Cn1cncn1)(Cn1cncn1)c1ccc(F)cc1F` [FLUCONAZOLE] gave an inhibition of growth at 4000 µg/mL [4] of 77.7% and an inhibition of growth at 4000 µg/mL [7] of 81.1%.
In the case of `O=C1NC(=O)/C(=C/c2cn(-c3ccccc3)nc2-c2ccc(O)cc2)S1`, the “diameter of the inhibition zone (DIZ)” value [1] is reported as “inactive”, the zone of inhibition at 4000 µg/mL [2] is reported as 15 mm and the DIZ [3] is reported as “inactive”. The inhibition of growth at 4000 µg/mL [4] was 54.4%, the zone of inhibition at 4000 µg/mL [5] was 14.6 mm and the MIC [6] was 128 µg/mL (≈ 352 µM). For the same compound, the inhibition of growth at 4000 µg/mL [7] was 55.5% and the MIC [8] was 128 µg/mL (≈ 352 µM).
`O=C1NC(=O)/C(=C/c2cn(-c3ccccc3)nc2-c2ccc(Br)cc2)S1` was tested, and the “diameter of the inhibition zone (DIZ)” value [1] was “inactive”, the zone of inhibition at 4000 µg/mL [2] was 18.6 mm and the DIZ [3] was “inactive”. The inhibition of growth at 4000 µg/mL [4] was 62.5%, the zone of inhibition at 4000 µg/mL [5] was 21.6 mm and the MIC [6] was 32 µg/mL (≈ 75.1 µM). The inhibition of growth at 4000 µg/mL [7] was 61.1% and the MIC [8] was 64 µg/mL (≈ 150 µM).
With `O=C1NC(=O)/C(=C/c2cn(-c3ccccc3)nc2-c2ccc(Cl)cc2)S1` the “diameter of the inhibition zone (DIZ)” value [1] was “inactive”, the zone of inhibition at 4000 µg/mL [2] was 14.3 mm and the DIZ [3] was “inactive”. The inhibition of growth at 4000 µg/mL [4] was 60%, the zone of inhibition at 4000 µg/mL [5] was 15 mm and the MIC [6] was 128 µg/mL (≈ 335 µM). For the same compound, the inhibition of growth at 4000 µg/mL [7] was 65.5% and the MIC [8] was 128 µg/mL (≈ 335 µM).
In the case of `O=C1NC(=O)/C(=C/c2cn(-c3ccccc3)nc2-c2ccc(F)cc2)S1`, the “diameter of the inhibition zone (DIZ)” value [1] is reported as “inactive”, the zone of inhibition at 4000 µg/mL [2] is reported as 20.6 mm and the DIZ [3] is reported as “inactive”. It also gave an inhibition of growth at 4000 µg/mL [4] of 78.8%, a zone of inhibition at 4000 µg/mL [5] of 21.6 mm and an MIC [6] of 32 µg/mL (≈ 87.6 µM). The inhibition of growth at 4000 µg/mL [7] was 82.5% and the MIC [8] was 32 µg/mL (≈ 87.6 µM).
With `O=C(O)c1cn(C2CC2)c2cc(N3CCNCC3)c(F)cc2c1=O` [CIPROFLOXACIN] the zone of inhibition at 4000 µg/mL [2] was 26 mm, the zone of inhibition at 4000 µg/mL [9] was 22 mm and the zone of inhibition at 4000 µg/mL [5] was 24 mm. The MIC [6] was 5 µg/mL (≈ 15.1 µM) and the MIC [8] was 5 µg/mL (≈ 15.1 µM).
In the case of `COc1ccc(-c2nn(-c3ccccc3)cc2/C=C2\SC(=O)NC2=O)cc1`, the “diameter of the inhibition zone (DIZ)” value [1] is reported as “inactive”, the zone of inhibition at 4000 µg/mL [2] is reported as 13.6 mm and the DIZ [3] is reported as “inactive”. For the same compound, the inhibition of growth at 4000 µg/mL [4] was 57.7%, the zone of inhibition at 4000 µg/mL [5] was 14.3 mm and the MIC [6] was 128 µg/mL (≈ 339 µM). For the same compound, the inhibition of growth at 4000 µg/mL [7] was 60% and the MIC [8] was 128 µg/mL (≈ 339 µM).
With `Cc1ccc(-c2nn(-c3ccccc3)cc2/C=C2\SC(=O)NC2=O)cc1` the “diameter of the inhibition zone (DIZ)” value [1] was “inactive”, the zone of inhibition at 4000 µg/mL [2] was 16.3 mm and the DIZ [3] was “inactive”. It also gave an inhibition of growth at 4000 µg/mL [4] of 65.5%, a zone of inhibition at 4000 µg/mL [5] of 15.6 mm and an MIC [6] of 128 µg/mL (≈ 354 µM). It also gave an inhibition of growth at 4000 µg/mL [7] of 68.8% and an MIC [8] of 128 µg/mL (≈ 354 µM).
